“Also recorded” adds a separate entry of the source.
Columns and labels:
[1] = tested on: choroidal neovascularisation; assay: Laser-induced choroidal neovascularisation rat model, fluorescein angiography leakage score; assay type: in vivo, Brown Norway pigmented rats; parameters: key to Mean score of fluorescein leakage: 0 = no leakage, 1 = slight, 2 = moderate, 3 = strongly stained
Description: Forty-eight (48) Brown Norway pigmented rats were divided into six (6) groups of eight (8) animals. Choroidal neovascularization was induced using a 532 nm argon laser photocoagulator (six (6) 75 μm-sized spots at 150 mW for 0.1 sec duration) in the right eyes on Day 0. The test item was administered three times a day by instillation or twice a day by oral administration from Day 0 (DO) just after ChNV induction to Day 21 (last day of the study). Control item (vehicle) was instilled three times a day and the reference item (Dexamethasone in olive oil) was administered by daily oral administration from the Day 0 just after induction of neovascularization to Day 21. Fundus neovessels were evaluated in the right eyes on Days 14 and 21 using Heidelberg's Retinal Angiograph (HRA). Lesion size was determined on choroid flatmounts labelled with Isolectin-B4 at the end of the in vivo period.
On Day 0, animals were anesthetized by an intramuscular injection of a mix of xylazine (5 mg/kg) and ketamine (25 mg/kg). Pupils from the right eyes were dilated by instillation of one drop of 0.5% tropicamide. Then, six (6) choroidal burns (75 μm spot size) were done through a slit-lamp, with a contact lens, around the optic disc, between the main vessel branches using an argon laser photocoagulator (532 nm; 150 mW; 0.1 sec duration). Production of a bubble at the time of laser treatment confirmed the rupture of Bruch's membrane.
Test, control, or reference items were administered topically by instillation (10 μL each) or by oral route (1 mL/kg) from Day 0 (just after the induction) to Day 21 (end of the study). Test and control items were administered three times a day (for instillation) and two times a day (for oral administration). Reference item was administered once a day by oral route.
Fluorescein angiography was performed on Days 14 and 21 using an HRA (Heidelberg's Retinal Angiograph). After anaesthesia (same mix used for ChNV induction) and pupillary dilation, 250 μL/100 g (body weight) of a 10% sodium fluorescein was injected subcutaneously using a 26-G insulin syringe, and fluorescein photos were recorded 10 minutes after dye injection.
The leakage of fluorescein on the angiograms were evaluated by two examiners in a masked fashion and graded as follows: • Score 0, no leakage; • Score 1, slightly stained; • Score 2, moderately stained; • Score 3, strongly stained.
Statistical analysis, using Mann-Whitney U test or appropriate statistical model, were performed on the scoring of lesions visualized by HRA from each animal and on the scoring of the flat mounted preparations.
The grading of fluorescein angiographies (FA) was based on the fluorescence intensity for each lesion. For each treatment group, results were expressed as the group mean score per time-point. Table 1 summarises the evaluation of FA recorded at 10 min on Days 14 and 21 (n=8 animals per group, right eyes). A statistical analysis was performed on the median of the individual intensity scores, using a Kruskall-Wallis test followed by a Mann & Whitney U multiple comparison test, which was used to compare each test, control or reference group.

[2] = tested on: VEGF induced corneal vascularisation; assay: VEGF induced corneal vascularisation (pellet in corneal pocket), area of neovascularisation; assay type: in vivo, C57BL/6 mice; parameters: Area of vasc.: unit not given beside the values
Description: (§1) The area of the neovascularisation can be measured using the formula: Area=0.2·VL·CH·π wherein vessel length (VL) and continuous circumferential zone (in clock hours=CH) are measured as defined in FIG. 1. Treatment with Laquinimod of VEGF Induced Corneal Vascularisation
Hydron pellets for induction of vascularisation were prepared from stimulant (VEGF) and binding agent (sucralfate).
53 CR female C57BL/6 mice aged 6 to 8 weeks were prepared for surgery by anesthetising with 90 mg/kg of pentobarbital, ip. Corneal vascularisation was induced by placement of a pellet in a corneal pocket cut in one eye. Signs for ocular irritation or infection were carefully monitored.
[…] Vascularisation was measured on day 8.

[3] = tested on: bFGF induced corneal vascularisation; assay: bFGF induced corneal vascularisation (pellet in corneal pocket), area of neovascularisation; assay type: in vivo, C57BL/6 mice
Description: as §1
Hydron pellets for induction of vascularisation were prepared from stimulant (bFGF) and binding agent (sucralfate).
47 CR female C57BL/6 mice aged 6 to 8 weeks were prepared for surgery by anesthetising with 90 mg/kg of pentobarbital, ip. Corneal vascularisation was induced by placement of a pellet in a corneal pocket cut in one eye. Signs for ocular irritation or infection were carefully monitored.
Dosages of laquinimod in DI (deionised) water, vehicle (DDW=double distilled water), and avastin (positive control) were applied directly to the eye containing the pellet. Vascularisation was measured on day 6.

[4] = tested on: bFGF induced corneal vascularisation; assay: as above; assay type: in vivo, C57BL/6 mice; remark: listed apart in the source
relapsing MS patients = conditions: clinical development program; cited from earlier work
[5] = Instillations 0.2% 3×/day, Day 14
[6] = Instillations 0.2% 3×/day, Day 21
[7] = Instillations 1% 3×/day, Day 14
[8] = Instillations 1% 3×/day, Day 21
[9] = Instillations 5% 3×/day, Day 14
[10] = Instillations 5% 3×/day, Day 21
[11] = group 4: 10 μg/animal topical bid ×7, measured day 8
[12] = group 5: 50 μg/animal topical bid ×7, measured day 8
[13] = group 6: 10 μg/animal topical qid ×7, measured day 8
[14] = group 7: 50 μg/animal topical qid ×7, measured day 8
[15] = group 5: 50 μg/animal topical bid ×5, measured day 6
[16] = group 7: 50 μg/animal topical qid ×5, measured day 6
[17] = group 4: 10 μg/animal topical bid ×5, measured day 6
[18] = group 6: 10 μg/animal topical qid ×5, measured day 6

CCN(C(=O)c1c(O)c2c(Cl)cccc2n(C)c1=O)c1ccccc1 [laquinimod]
% of reduction vs respective vehicle [1, 5]: 0% | Mean score of fluorescein leakage [1, 5]: 0.7 | % of reduction vs respective vehicle [1, 6]: 18% | Mean score of fluorescein leakage [1, 6]: 0.9 | % of reduction vs respective vehicle [1, 7]: <0% | Mean score of fluorescein leakage [1, 7]: 1.1 | % of reduction vs respective vehicle [1, 8]: <0% | Mean score of fluorescein leakage [1, 8]: 1.2 | % of reduction vs respective vehicle [1, 9]: 0% | Mean score of fluorescein leakage [1, 9]: 0.7 | % of reduction vs respective vehicle [1, 10]: 63% | Mean score of fluorescein leakage [1, 10]: 0.4 | % of reduction vs respective vehicle ([1]; Per os 1 mg/kg 2×/day, Day 14): <0% | Mean score of fluorescein leakage ([1]; Per os 1 mg/kg 2×/day, Day 14): 0.8 | % of reduction vs respective vehicle ([1]; Per os 1 mg/kg 2×/day, Day 21): 18% | Mean score of fluorescein leakage ([1]; Per os 1 mg/kg 2×/day, Day 21): 0.9 | vascular leakage ([1]; daily topical administration): effectively reduces vascular leakage | Inhibition of corneal vascularisation induced by VEGF ([2]; 0.5 mg/kg bid, group 4): did not provide for any inhibition; also recorded: no inhibition | Inhibition of corneal vascularisation induced by VEGF ([2]; 0.5 mg/kg qid, group 6): 8% | Inhibition of corneal vascularisation induced by VEGF ([2]; 2.5 mg/kg bid, group 5): 46% | Inhibition of corneal vascularisation induced by VEGF ([2]; 2.5 mg/kg qid, group 7): 50% | Area of vasc. [2, 11]: 1.49 ± 0.13 | Area percent of positive control [2, 11]: 101% | Area of vasc. [2, 12]: 0.79 ± 0.06 | Area percent of positive control [2, 12]: 54% | Area of vasc. [2, 13]: 1.35 ± 0.09 | Area percent of positive control [2, 13]: 92% | Area of vasc. [2, 14]: 0.74 ± 0.11 | Area percent of positive control [2, 14]: 50% | Inhibition of corneal vascularisation induced by bFGF ([3]; 0.5 mg/kg bid, group 4): 11% | Inhibition of corneal vascularisation induced by bFGF ([3]; 2.5 mg/kg bid, group 5): 35% | Inhibition of corneal vascularisation induced by bFGF ([3]; 2.5 mg/kg qid, group 7): 56% | Area of vasc. [3, 15]: 2.30 ± 0.23 | Area percent of positive control [3, 15]: 65% | Area of vasc. [3, 16]: 1.56 ± 0.15 | Inhibition of corneal vascularisation induced by bFGF ([4]; 0.5 mg/kg qid, group 6): 37% | Area of vasc. [4, 17]: 3.16 ± 0.06 | Area percent of positive control [4, 17]: 89% | Area of vasc. [4, 18]: 2.25 ± 0.16 | Area percent of positive control [4, 18]: 63% | Area percent of positive control [4, 16]: 44% | annual relapse rate (relapsing MS patients): consistent clinical benefit

Source: US12208091B2, “Compounds for treatment of eye diseases associated with excessive vascularisation” (Active Biotech AB, priority 2019, dated 2025)
